Experimental data reported in patent US20200115357A1, “LIVER X RECEPTORS (LXR) MODULATORS” (Phenex-FXR GmbH, priority 2017, published 2020).

Tests used:
Format in all cases: cell-based
LXRβ full length (FL) = target: T1, LXRβ full length (FL) (Homo sapiens, UniProt P55055, DUP175-175); assay: LXR Gal4 reporter transient transfection assay (M2H), Gal4β FL; details: HEK293 cells; read-out: M2H Gal4β FL activity range (EC50)
T1 construct: the full length (FL) proteins of LXRα (amino acids 1-447); NP005684; NP009052; expressed in transfected cells; host or cells: HEK293
T1 sequence (P55055 with tags, fused parts or gaps DUP175-175): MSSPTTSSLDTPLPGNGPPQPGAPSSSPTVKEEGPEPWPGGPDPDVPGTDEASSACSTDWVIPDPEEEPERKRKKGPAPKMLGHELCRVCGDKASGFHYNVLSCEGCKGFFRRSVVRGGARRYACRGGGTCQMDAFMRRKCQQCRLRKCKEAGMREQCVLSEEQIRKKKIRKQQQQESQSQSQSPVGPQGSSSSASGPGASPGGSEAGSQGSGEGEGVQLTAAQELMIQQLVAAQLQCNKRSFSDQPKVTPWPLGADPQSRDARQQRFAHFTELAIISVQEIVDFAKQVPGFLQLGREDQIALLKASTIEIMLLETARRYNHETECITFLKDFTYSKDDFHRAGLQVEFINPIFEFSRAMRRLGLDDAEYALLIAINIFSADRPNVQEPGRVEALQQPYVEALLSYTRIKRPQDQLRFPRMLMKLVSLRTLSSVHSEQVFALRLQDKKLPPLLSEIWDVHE
Method in brief: (§1)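 Mammalian two-hybrid in HEK293 cells transiently transfected with LXRα/β full-length or LBD fused to NFkB activation domain, plus GAL4-DBD fusions of SRC1 coactivator or NCoR corepressor domains and a GAL4-responsive firefly luciferase reporter. Compounds added 4 h post-transfection (vehicle ≤0.2% DMSO), 16 h incubation; firefly luciferase normalized to Renilla.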

[1] = target: T2, LXRα ligand-binding domain (LBD) (Homo sapiens, UniProt Q13133); assay: LXR Gal4 reporter transient transfection assay (M2H), Gal4α LBD; details: HEK293 cells; read-out: M2H Gal4α LBD activity range (EC50)
T2 construct: expressed in transfected cells; host or cells: HEK293
T2 sequence (Q13133 155-447): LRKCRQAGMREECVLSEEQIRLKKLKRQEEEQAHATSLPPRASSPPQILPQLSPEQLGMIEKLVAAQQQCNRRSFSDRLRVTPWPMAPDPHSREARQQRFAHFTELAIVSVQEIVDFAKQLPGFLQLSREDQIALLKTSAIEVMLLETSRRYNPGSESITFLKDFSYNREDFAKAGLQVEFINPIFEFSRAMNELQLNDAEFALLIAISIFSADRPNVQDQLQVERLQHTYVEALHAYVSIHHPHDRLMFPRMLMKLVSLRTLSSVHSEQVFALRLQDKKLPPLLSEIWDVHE
Method in brief: as §1

[2] = target: T3, LXRβ ligand-binding domain (LBD) (Homo sapiens, UniProt P55055, DUP175-175); assay: LXR Gal4 reporter transient transfection assay (M2H), Gal4β LBD; details: HEK293 cells; read-out: M2H Gal4β LBD activity range (EC50)
T3 construct: LXRβ (amino acids 156-461); expressed in transfected cells; host or cells: HEK293
T3 sequence (P55055 with tags, fused parts or gaps DUP175-175): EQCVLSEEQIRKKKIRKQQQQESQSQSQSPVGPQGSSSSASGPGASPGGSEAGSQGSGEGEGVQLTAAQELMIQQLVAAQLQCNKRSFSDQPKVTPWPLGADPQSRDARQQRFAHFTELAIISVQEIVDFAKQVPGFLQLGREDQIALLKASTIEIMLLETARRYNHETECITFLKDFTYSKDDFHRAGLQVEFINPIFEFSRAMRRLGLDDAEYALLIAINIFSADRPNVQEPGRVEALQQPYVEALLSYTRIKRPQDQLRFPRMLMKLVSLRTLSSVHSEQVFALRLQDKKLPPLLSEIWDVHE
Method in brief: as §1

Row | EC50 (LXRβ full length (FL)) | EC50 [1] | EC50 [2] | Compound
1 | 0.1 to 1 µM |  |  | Cc1ccc2ccccc2c1S(=O)(=O)N(Cc1ccc(-c2cccc(S(=O)(=O)CC(=O)O)c2)cc1)Cc1cccc(C(F)(F)F)c1 [11/19]
2 | 0.1 to 1 µM |  |  | Cc1cc(C)c(S(=O)(=O)N(Cc2ccc(-c3cccc(S(=O)(=O)CC(=O)O)c3)cc2)Cc2ccc(C(F)(F)F)o2)c(C)c1 [Example 5, 2-((4′-(((2,4,6-Trimethyl-N-((5-(trifluoromethyl)furan-2-yl)methyl)phenyl)sulfonamido)methyl)-[1,1′-biphenyl]-3-yl)sulfonyl)acetic acid]
3 | 0.1 to 1 µM | 0.1 to 1 µM | 0.1 to 1 µM | Cc1cc(C)c(S(=O)(=O)N(Cc2ccc(-c3cccc(S(=O)(=O)C(C)(C)C(=O)O)c3)cc2)Cc2ccc(C(F)(F)F)o2)c(C)c1 [5/2]
4 | < 0.1 µM | < 0.1 µM | < 0.1 µM | Cc1ccc2ccccc2c1S(=O)(=O)N(Cc1ccc(-c2cccc(C(C)(C)C(=O)O)c2)cc1)Cc1ccc(C(F)(F)F)o1 [Example 24, 2-Methyl-2-(4′-(((2-methyl-N-((5-(trifluoromethyl)furan-2-yl)methyl)naphthalene)-1-sulfonamido)methyl)-[1,1′-biphenyl]-3-yl)propanoic acid]
5 | < 0.1 µM | < 0.1 µM | < 0.1 µM | Cc1cc(C)c(S(=O)(=O)N(Cc2ccc(-c3cccc(CC(=O)O)c3)cc2)C(C)c2ccc(C(F)(F)F)o2)c(C)c1 (centres unmarked) [2/2]
6 | < 0.1 µM | 0.1 to 1 µM | < 0.1 µM | Cc1cc(C)c(S(=O)(=O)N(Cc2ccc(-c3cccc(CC(=O)O)c3)cc2)Cc2ccc(C(F)(F)F)o2)c(C)c1 [Example 2, 2-(4′-(((2,4,6-Trimethyl-N-((5-(trifluoromethyl)furan-2-yl)methyl)phenyl)sulfonamido)methyl)-[1,1′-biphenyl]-3-yl)acetic acid]
7 | < 0.1 µM | < 0.1 µM | < 0.1 µM | COc1cc(-c2cccc(C(C)(C)C(=O)O)c2)ccc1CN(Cc1ccc(C(F)(F)F)o1)S(=O)(=O)c1c(C)cc(C)cc1C [10/4]
8 | < 0.1 µM | < 0.1 µM | < 0.1 µM | Cc1cc(C)c(S(=O)(=O)N(Cc2ccc(-c3cccc(C(C)(C)C(=O)O)c3)cc2)Cc2ccc(C(F)(F)F)o2)c(C)c1 [7/5]
9 | < 0.1 µM | < 0.1 µM | < 0.1 µM | Cc1cc(C)c(S(=O)(=O)N(Cc2ccc(-c3cc(F)c(CO)c(S(C)(=O)=O)c3)cc2)Cc2ccc(C(F)(F)F)o2)c(C)c1 [Example C3/2]
10 | < 0.1 µM | < 0.1 µM | < 0.1 µM | Cc1cc(C)c(S(=O)(=O)N(Cc2ccc(C(F)(F)F)o2)Cc2ccc(-c3cccc(C(C)(C)C(=O)O)c3)cc2Cl)c(C)c1 [10/5]
